For series [1], the system named is proteases (aspartic, cysteine, and serine), cyclooxygenases, lipoxygenases and group IV phospholipase (sPLA2). Description: off-target test on a set of enzymes (overall statement). The class given is biochemical. The conditions noted are these: 10 μM. The source says: Compound of Example 25 falling in both Formula (I) and (Ia) was selected to be tested for off-target effects on a set of enzymes that include proteases (aspartic, cysteine, and serine), cyclooxygenases as well as lipoxygenases and group IV phospholipase (sPLA2) (Table 3). [table]

The next series deals with AC (Mus musculus (Mouse), UniProt Q9WV54). Briefly: AC activity ex vivo in mouse tissues after systemic administration. The conditions noted are these: mice. The method, then: Specifically, it is evidences the effects of compound of Example 7 or vehicle (15% polyethylene glycol, 15% Tween80, 70% saline) on AC activity in mouse lungs. AC activity measured ex vivo 30 minutes or 3 hours after intraperitoneal injection of compound of Example 7 (10 mg-kg^−1). Results are expressed as mean±s.e.m. (n=6). ***p<0.001 vs vehicle, one-way ANOVA followed by Dunnet.
Specifically, FIG. 7 illustrates the effects of compound of Example 25 or vehicle (15% polyethylene glycol, 15% Tween80, 70% saline) on AC activity in mouse lungs (oral administration, A) or cerebral cortex (intraperitoneal administration, B) and on ceramide levels (C and D). Results are expressed as mean±s.e.m. (n=6). *p<0.05, **p<0.01, ***p<0.001 vs vehicle, one-way ANOVA followed by Dunnet.
hAC protein preparation (10 μg) was preincubated with inhibitors (final DMSO concentration 1%) in assay buffer (100 mM sodium phosphate, 0.1% Nonidet P-40, 150 mM NaCl, 3 mM DTT, 100 mM sodium citrate, pH 4.5) for 30 min at 37° C. Reactions were started by the addition of 50 μM N-lauroyl ceramide (Nu-Chek Prep, Elysian, Minn.) and carried on for 30 min at 37° C. Reactions were stopped by addition of a mixture of chloroform/methanol (2:1, vol/vol) containing 1 nmol 11-lauroleic acid (NuChek Prep). The organic phases were collected, dried under nitrogen and analyzed by UPLC/MS (Acquity, Waters). In the negative-ion mode monitoring the reaction product (lauric acid, m/z=199) using 11-lauroleic acid as internal standard.

A further series relates to MAG levels. Briefly: MAG levels in mouse tissues. The conditions noted are these: mice; 10 mg-kg-1 intraperitoneal; after 3 hours. It counts as in vivo. As for the experimental part: Specifically, the levels of MAGs were quantified after 3 hours after intraperitoneal injection of compound of Example 25 (10 mg-kg-1). Specifically, levels of 16:0 MAG, 18:0 MAG, 18:1 MAG, 22:4 MAG, 22:6 MAG were measured in the brain (a); levels of 16:0 MAG, 18:0 MAG, 18:1 MAG, 22:4 MAG were measured in the liver (b), in fat (c) and in the heart (d). Results are expressed as mean±s.e.m. (n=5).
We homogenized tissue samples (20-30 mg) in methanol (1 mL) containing deuterium-labeled 2-AG (500 pmol) as internal standard (Cayman, Ann Arbor, Mich.). We extracted lipids with chloroform (2 mL) and water (1 mL). The organic phases were dried in a stream of N2, reconstituted in chloroform (2 mL) and fractionated by open-bed silica gel column chromatography as described. The eluded fraction containing 2-AG and anandamide were dried under N2, and residues were suspended in chloroform/methanol (1:3, vol:vol; 100 μL). Analyses were conducted using a liquid chromatography mass spectrometry (LC-MS) apparatus consisting of an Agilent 1100 system and 1946D mass spectrometer detector equipped with ESI interface (Agilent Technologies, Santa Clara, Calif., USA).

The next series has as its system A375 cells. Description: ceramide levels in A375 human melanoma cells. The conditions noted are these: 25 μM. It counts as cell-based. The method, then:
Specifically, FIG. 1 evidences the effects of compound of Example 7 or vehicle (0.1% DMSO in DMEM) on AC activity and ceramide levels in A375 (left panel) or MeWo (right panel) human melanoma cell lines. (A-B) Intact cells were treated with compound of Example 7 (25 μM) or vehicle and AC activity was measured 30 minutes or 3 hours later in cell lysates. (B) Intact cells were exposed to compound of Example 7 (25 μM) for 2 hours or 24 hours and medium chain ceramides (C-D), long chain ceramides (E-F) and dihydroceramides (G-H) were quantified. Results are expressed as mean±s.e.m. (n=3). *p<0.05, **p<0.01, ***p<0.001 vs vehicle, two-way ANOVA followed by Dunnet.
Lipids were extracted from mouse tissue lysate with a chloroform/MeOH mixture (2:1 v/v, 3 mL) containing internal standards. The organic phase was collected, dried under nitrogen, and dissolved in chloroform/MeOH (1:3 v/v) for LC-MS analyses. Ceramides, sphingosine and sphinganine were analyzed by LC-MS/MS, using a Waters Acquity UPLC coupled with a Waters Xevo TQMS and interfaced with ESI. Separation was done on a Waters Acquity BEH C18 1.7 μm column (2.1×50 mm) at 60° C. A step gradient of 0.1% formic acid in acetonitrile/water (20:80 v/v) as solvent A and 0.1 formic acid in acetonitrile/isopropyl alcohol (20:80 v/v) as solvent B was applied at a flow rate of 0.4 mL/min. Detection was in the positive ionization mode. Capillary voltage was 3.5 kV and cone voltage was 25 V. The source temperature and desolvation temperatures were set at 120° C. and 600° C. respectively. […]
Tissue-derived ceramides were identified by comparison of their LC retention times and MS^2 fragmentation patterns with those of authentic standards (Avanti Polar Lipids). Extracted ion chromatograms were used to quantify myristoyl ceramide (C14:0, m/z 510.5>492.5>264.3), palmitoyl ceramide (C16:0, m/z 538.5>520.3>264.3), stearoyl ceramide (C18:0 m/z 566.5>548.3>264.3), lignoceroyl ceramide (C24:0 m/z 650.5>632.3>264.3), nervonoyl ceramide (C24:1 m/z 648.5>630.3>264.3) and using lauroyl ceramide standard (m/z 482.5>464.5>264.3). […]

The source of these data is patent US10226452B2, “Benzoxazolone derivatives as acid ceramidase inhibitors, and their use as medicaments” (FONDAZIONE ISTITUTO ITALIANO DI TECNOLOGIA, priority 2014, dated 2019).

The structures appear in SMILES notation.

Sequence of AC (Q9WV54 19-141): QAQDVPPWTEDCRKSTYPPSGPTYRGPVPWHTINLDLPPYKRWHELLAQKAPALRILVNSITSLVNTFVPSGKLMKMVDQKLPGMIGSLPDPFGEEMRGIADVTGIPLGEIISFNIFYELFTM
Sequence of AC (Q9WV54 142-394): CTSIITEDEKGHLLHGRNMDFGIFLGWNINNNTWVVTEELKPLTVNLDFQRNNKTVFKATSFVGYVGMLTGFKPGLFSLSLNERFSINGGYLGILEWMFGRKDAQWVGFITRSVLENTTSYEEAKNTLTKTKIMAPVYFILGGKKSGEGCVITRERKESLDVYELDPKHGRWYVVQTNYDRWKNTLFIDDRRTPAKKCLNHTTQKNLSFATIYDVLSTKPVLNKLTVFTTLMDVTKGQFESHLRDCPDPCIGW
Text for SW403 cells: Combinatory index calculation of cell viability data analyzed with CompuSyn Software. The resulting combination index (CI) offers quantitative definition for additive effect (CI=1), synergism (CI<1), and antagonism (CI>1) in drug combinations. Results are expressed as mean±s.e.m. (n=8-16) of three independent experiments.
Finally, the CellTiter-Glo® Luminescent Cell Viability Assay can be used to determine the number of viable cells in culture based on quantitation of the ATP present, which signals the presence of metabolically active cells. Briefly, a volume of CellTiter-Glo® Reagent equal to the volume of cell culture medium present in each well is added to 96-well plates after drug treatment. Contents are mixed for 2 minutes on an orbital shaker to induce cell lysis and plate was incubated at room temperature for 10 minutes to stabilize signal before reading luminescence.
The compounds were added to the cultures once every 24 hours over a period of 72 hours and the effects of the combined treatments were evaluated using CompuSyn Software.

As to `O=C(NCCCCc1ccccc1)n1c(=O)oc2cc(-c3ccc(F)cc3)ccc21` [Example 25, 6-(4-Fluorophenyl)-2-oxo-N-(4-phenylbutyl)-1,3-benzoxazole-3-carboxamide], in series [1], the “activity towards the off-target enzyme set” value is on record as “has not any significant activity”. In addition, the “AC activity in lungs” value on AC (3 or 10 mg-kg^−1, intraperitoneal or oral (FIG. 7A oral)) is “time and dose-dependent inhibition of AC activity”. Moreover, the “AC activity in brain cortex” value at AC (3 or 10 mg-kg^−1, intraperitoneal or oral (FIG. 7B intraperitoneal)) was “time and dose-dependent inhibition of AC activity”. Also, the “levels of the most representative MAGs in brain, liver, fat and heart” value in the series on MAG levels is reported as “remained unchanged”. Besides, in the series with SW403 cells, the “interaction with 5-FU on SW403 cell viability (combinatory index analysis)” value is on record as “acted synergistically with 5-FU”.
On to `O=C(NCCCCc1ccccc1)n1c(=O)oc2cc(Br)ccc21` [Example 7, 6-Bromo-2-oxo-N-(4-phenylbutyl)-1,3-benzoxazole-3-carboxamide], for which the “duration of effects on ceramide levels” value in the series with A375 cells (A375 cells (low AC expression)) is given as “lasted up to 24 hours”. In addition, in the series with A375 cells (A375 cells), the “di-hydro ceramide species levels” value was “significant increase in all di-hydro ceramide species analyzed”. Also, the “ceramide species levels (cer(d18:1/14:0), cer(d18:1/16:0), cer(d18:1/18:0), cer(d18:1/24:1))” value in the series with A375 cells (A375 cells, LC/MS) was “intracellular accumulation of various ceramide species”. For the same molecule, the “AC activity in lungs” value at AC (10 mg-kg^−1 intraperitoneal, after 30 minutes or 3 hours) is recorded as “time-dependent inhibition of AC activity in lungs”.
